Consider one compound from patent publication US12128040B2, “Selective estrogen receptor degraders” (Eli Lilly and Company, priority 2018, dated 2024).

The structures appear in SMILES notation.

Assay [1] concerns MCF7-ESR1 Y537N mutant cells. As to the kind of experiment: Cell proliferation assay in MCF7-ESR1 Y537N-682. In kind it is cell-based. Conditions: Homo sapiens, seven days, n=6, read-out: Relative IC50 (nM), cell proliferation.
Assay [2] concerns MCF7 xenograft tumor. The assay is described as follows: In vivo tumor growth inhibition study in MCF7 xenograft tumor implanted in mice. Conditions: MCF7 breast cancer xenograft, 30 mg/kg QD, oral gavage. As for the experimental part:
The purpose of the following xenograft tumor growth inhibition assay is to measure reduction in tumor volume in response to test compound administration.
Twenty-four hours prior to implantation of MCF7 cells, implant estrogen pellets (0.18 mg/pellet, […], 90-day release, Innovative Research) subcutaneously.

Assay [3] concerns Y537N mutant ERα receptor. As to the kind of experiment: PRα inhibition (ERα functional antagonism) cell assay in MCF7-ESR1 Y537N 682 CRISPR cells. In kind it is cell-based. The settings on record: Homo sapiens; MCF7-ESR1 Y537N 682 cells, 72 hours, n=14; read-out: Relative IC50 (nM), PRα inhibition. From the text:
The purpose of the following PRα inhibition (ERα functional antagonism) cell assay is to determine the antagonistic activity of a test compound against the Y537N mutant ERα receptor. An antagonist in this assay is expected to block the function of the ERα receptor.
Culture MCF7-ESR1 Y537N-682 (generated by CRISPR/Cas9 gene editing of ESR1 gene in MCF7 cells, clone #682) in DMEM media supplemented with 10% FBS and 1% penicillin/streptomycin antibiotics and plate the cells (prior to becoming 70% confluent) in 384-well flat-bottom plates at a density of 4,000 cells per well in DMEM phenol red free media 10% FBS (20 μL volume) (charcoal stripped). Incubate the cells overnight in a cell culture incubator (5% CO2, 95% relative humidity and 37° C.) and allow the cells to attach to the plate. The following day dose the cells with the test compound. Use an Echo 555 acoustic dispenser to prepare compound serial dilutions (1:3) in a range from 6 μM to 0.0003 μM. […]
The following day, wash the cells with PBS […] (2×20 μL) and incubate with secondary antibody (20 μL/well) (1:1000 dilution, Goat anti-rabbit IgM ALEXA FLUOR™ 488) in PBS 1% BSA for 105 minutes at room temperature. […] Scan the plates with ACUMEN EXPLORER™ [Laser-scanning fluorescence microplate cytometer manufactured by TTP LABTECH LTD] to measure progesterone receptor alpha. […]

For assay [4], the target named is T1, ERα (wild type) (Homo sapiens, UniProt P03372).
T1 sequence (P03372 1-595): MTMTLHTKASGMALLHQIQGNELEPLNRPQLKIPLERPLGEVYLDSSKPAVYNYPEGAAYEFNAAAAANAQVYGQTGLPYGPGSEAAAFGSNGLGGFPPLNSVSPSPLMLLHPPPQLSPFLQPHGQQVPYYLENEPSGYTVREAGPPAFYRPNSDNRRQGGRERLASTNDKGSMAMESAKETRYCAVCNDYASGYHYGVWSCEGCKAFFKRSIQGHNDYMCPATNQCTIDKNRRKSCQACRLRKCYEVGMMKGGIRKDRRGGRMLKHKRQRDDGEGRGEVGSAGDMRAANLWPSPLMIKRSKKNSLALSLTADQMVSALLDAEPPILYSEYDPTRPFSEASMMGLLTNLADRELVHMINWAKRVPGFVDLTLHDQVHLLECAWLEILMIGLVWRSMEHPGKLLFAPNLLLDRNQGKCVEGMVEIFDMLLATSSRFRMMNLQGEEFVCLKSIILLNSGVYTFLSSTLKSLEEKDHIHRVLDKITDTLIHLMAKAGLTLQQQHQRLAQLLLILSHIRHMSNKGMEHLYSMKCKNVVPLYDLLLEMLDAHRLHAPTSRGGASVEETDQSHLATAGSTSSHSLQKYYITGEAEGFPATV
As to the kind of experiment: ERα (wild type) competition binding assay. The settings on record: recombinant ERα wild type, 3H-estradiol competition, n=3. The procedure: The purpose of the following ER competition binding assays is to determine the binding affinity of a test compound against ERα (wild type) and ERα (Y537S mutant) See Fanning et al., “Estrogen receptor alpha somatic mutations Y537S and D538G confer breast cancer endocrine resistance by stabilizing the activating function-2 binding conformation,” eLife 2016; 5:e12792.
Run the competition binding assay in a buffer containing 50 mM HEPES, pH 7.5, 1.5 mM EDTA, 150 mM NaCl, 10% glycerol, 1 mg/mL ovalbumin, and 5 mM DTT, using 0.025 µCi per well ^3H-estradiol (118 Ci/mmol, 1 mCi/mL), 7.2 ng/well ERα (wild type), or 7.2 ng/well ERα (Y537S mutant). Add the test compound at 10 different concentrations ranging from 10,000 nM to 0.5 nM, and determine nonspecific binding in the presence of 1 μM of […]. Incubate the binding reaction (140 μL) for 4 hours at room temperature, and then add cold dextran-charcoal buffer (70 μL) (containing per 50 mL of assay buffer, 0.75 g of charcoal and 0.25 g of dextran) to each reaction. Mix the plates for 8 minutes on an orbital shaker at 4° C. and then centrifuge at 3000 rpm at 4° C. for 10 minutes. […] After an incubation of 2.5 hours, read the plates in a Wallac Microbeta counter. […]

In general, Ki refers to a dissociation constant, usually derived from enzyme kinetics or from competition with a known ligand. Turning to `O=C(c1ccc(OCCN2CC(CF)C2)cc1)c1c(-c2ccc(C(F)(F)F)cc2F)cnc2cc(O)ccc12` [Example 1, (4-{2-[3-(Fluoromethyl)azetidin-1-yl]ethoxy}phenyl){3-[2-fluoro-4-(trifluoromethyl)phenyl]-7-hydroxyquinolin-4-yl}methanone], the IC50 in assay [1] turned out to be 7.96 ± 3.69 nM; in assay [3] it was 7.6 ± 4.8 nM. The “Delta T/C % or Regression %” value in assay [2] is recorded as −36%. Moreover, the Ki in assay [4] is 3.78 ± 0.74 nM.
